{"source": "patent US9211313B2", "about": "“Methods and compound to inhibit Ca2+ permeable cation conductance” (priority 2011, dated 2015)", "key": {"KCa3.1": {"molecular_target": "T1, KCa3.1 (Homo sapiens, UniProt O15554)", "T1 construct": "KCa3.1 activity stimulated in intact human AA cells by 1 μM A23187; endogenous in cells; host or cells: intact human AA red blood cells", "T1 sequence (O15554 whole entry)": "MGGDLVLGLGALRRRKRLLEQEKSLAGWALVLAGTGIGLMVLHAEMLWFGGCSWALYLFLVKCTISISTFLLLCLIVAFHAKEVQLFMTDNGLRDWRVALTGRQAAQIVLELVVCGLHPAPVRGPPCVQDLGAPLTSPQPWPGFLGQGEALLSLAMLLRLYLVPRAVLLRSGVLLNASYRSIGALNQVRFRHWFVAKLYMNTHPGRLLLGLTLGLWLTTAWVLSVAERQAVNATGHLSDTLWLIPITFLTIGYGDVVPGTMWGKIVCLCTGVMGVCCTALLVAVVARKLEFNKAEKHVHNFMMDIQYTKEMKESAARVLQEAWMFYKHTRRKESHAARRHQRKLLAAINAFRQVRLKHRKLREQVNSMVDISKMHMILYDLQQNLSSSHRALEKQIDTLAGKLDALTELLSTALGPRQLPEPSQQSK", "experiment": "A23187-stimulated KCa3.1 activity measured as 86Rb influx", "type": "cell-based", "conditions": "1 μM; intact human AA cells, 1 μM A23187, extracellular Ca2+; n=3"}, "[1]": {"test_system": "Berkeley sickle mouse red cells", "experiment": "Fluo-3 fluorescence measurement of [Ca2+]i during deoxygenation, Berkeley cells", "type": "cell-based", "conditions": "1 μM bath preincubation", "description": "Blood was withdrawn by cardiac puncture or from the tail vein of C57B16/J wildtype mice, SAD sickle mice, or Berkeley sickle mice into heparinized syringes by IACUC-approved protocols of Beth Israel Deaconess Medical Center. Buffy coat-depleted cells were washed 5 times in standard mouse red cell wash solution containing (in mM) 172 choline Cl, 10 sucrose, 10 Na Tris-MOPS, pH 7.4, resuspended in storage solution, and kept at 4° C. until use.\nFluorescence measurements of cytosolic [Ca^2+] […]\nMeasurement of relative changes in [Ca^2+]i by Fluo-3 fluorescence emission was previously validated in intact human (Yang et al. 2000, Blood, 95(7):2421-2425; Andrews et al. 2002, Blood, 199(9):3392-3399) and mouse red cells (Akel et al. 2007, Amer. J. Physiol., 292(5):C1759-1767). […] Fluorescence emission (proportional to [Ca^2+]i) from a 535ds20 bandpass filter was collected from all attached single cells within the arbitrarily selected visual field. […]\nFluo-3 fluorescence from attached cells on each coverslip was recorded 60 sec in room air and then for 10 min after onset of perfusion chamber flushing with humidified 100% N2. […] The y-axis value of 0% change in Fluo-3 fluorescence intensity represented mean intensity recorded from all cells within the coverslip visual field during the 60 sec prior to deoxygenation."}}, "data": [{"substance": "Grammastola spatulata mechanotoxin 4 (GCLEFWWKCNPNDDKCCRPKLKCSKLFKLCNFSF; listed as Grammastola spatulata) [GsMTx-4]", "values": [{"measurement": "effect on KCa3.1 activity, 86Rb influx", "setting": "KCa3.1", "value": "no effect"}, {"measurement": "effect on deoxygenation-increased [Ca2+]i", "setting": "[1]", "value": "inhibited nearly completely"}, {"measurement": "effect on deoxygenation-increased [Ca2+]i", "setting": "[1]; listed as GsMtx-4", "value": "prevented"}]}]}
